Measured values reported in patent US9687453B2, “Solid pharmaceutical composition” (KYORIN PHARMACEUTICAL CO., LTD., priority 2013, dated 2017).

Assay: pH of acidic substance (2.5% liquid in water, pH meter)
Assay type: physicochemical
Conditions: 50 mg in 1,950 μL of water (concentration 2.5%)
Description: The “acidic substance” described herein is a substance which is dissolved in water to generate hydrogen ions.

pH: ≤ 3.5
SMILES: Cl.N[C@@H](CCC(=O)O)C(=O)O [L-glutamic acid hydrochloride]
